Assay results published in patent publication EP3495350B1, “COMPOUND INHIBITING FORMATION OF C-MYC/MAX/DNA COMPLEX” (National Cancer Center, priority 2016, dated 2018).

Experiments:
MBT-2 = assay: Cell based assay, cell viability (CellTiter-Glo), MBT-2; conditions: 72 hours, 0 to 2 µM; read-out: cell based assay cell line 1 MBT-2 IC50
Experimental: (§1) Commercially available bladder cancer cell lines were treated with trypsin-EDTA and seeded in each well of a 96 well plate, followed by incubation for 24 hours. After incubation, candidate compounds were added to each well at a final concentration of 0 to 2 µM. The compound-treated cells were further incubated for 72 hours. Cell viability was measured using an ATP detection method (CellTiter-Glo Luminescent Cell Viability Assay, Promega).
(§2) The selectivity of the compounds of the present disclosure to cancer cells was evaluated in the same manner as described in "2. Cell based assay".

KU19-19 = assay: Cell based assay, cell viability (CellTiter-Glo), KU19-19; conditions: Homo sapiens, KU-19-19; 72 hours, 0 to 2 µM; read-out: cell based assay cell line 2 KU19-19 IC50
Experimental: as §1, §2

253J = assay: Cell based assay, cell viability (CellTiter-Glo), 253J; conditions: Homo sapiens; 72 hours, 0 to 2 µM; read-out: cell based assay cell line 3 253J IC50
Experimental: as §1, §2

UM-UC-3 = assay: Cell based assay, cell viability (CellTiter-Glo), UM-UC-3; conditions: Homo sapiens, UMUC3; 72 hours, 0 to 2 µM; read-out: cell based assay cell line 4 UM-UC-3 IC50
Experimental: as §1, §2

| Compound | IC50 (MBT-2) | IC50 (KU19-19) | IC50 (253J) | IC50 (UM-UC-3) |
| --- | --- | --- | --- | --- |
| COc1cccc(C[S+]([O-])c2[nH]c3c(Br)ccc(Cl)c3c(=O)c2C(C)=O)c1 (stereo not drawn) [Compound 55, 3-acetyl-8-bromo-5-chloro-2-((3-methoxybenzyl)sulfinyl)quinolin-4(1H)-one] | > 2000 nM | 1380 nM | 1330 nM | 1580 nM |
| COC(=O)c1ccc(C[S+]([O-])c2[nH]c3c(Cl)ccc(Cl)c3c(=O)c2C(C)=O)o1 (stereo not drawn) [Compound 89, methyl 5-(((3-acetyl-5,8-dichloro-4-oxo-1,4-dihydroquinolin-2-yl)sulfinyl)methyl)furan-2-carboxylate] | 1270 nM | > 2000 nM | 1840 nM | 1470 nM |
| COc1ccccc1[S+]([O-])c1[nH]c2c(Br)ccc(Cl)c2c(=O)c1C(C)=O (stereo not drawn) [Compound 15, 3-acetyl-8-bromo-5-chloro-2-((2-methoxyphenyl)sulfinyl)quinolin-4(1H)-one] | > 2000 nM | 1910 nM | > 2000 nM | > 2000 nM |
| COCCNc1ccc(C[S+]([O-])c2[nH]c3c(Br)ccc(Cl)c3c(=O)c2C(C)=O)cn1 (stereo not drawn) [Compound 105, 3-acetyl-8-bromo-5-chloro-2-(((6-((2-methoxyethyl)amino)pyridin-3-yl)methyl)sulfinyl)quinolin-4(1H)-one] | > 2000 nM | > 2000 nM | > 2000 nM | > 2000 nM |
| CC(=O)c1c([S+]([O-])Cc2cccnc2)[nH]c2c(Br)ccc(Cl)c2c1=O (stereo not drawn) [Compound 84, 3-acetyl-8-bromo-5-chloro-2-((pyridin-3-ylmethyl)sulfinyl)quinolin-4(1H)-one] | 670 nM | 1500 nM | 870 nM | 760 nM |
| CC(=O)c1c([S+]([O-])Cc2ccc(N)nc2)[nH]c2c(Br)ccc(Cl)c2c1=O (stereo not drawn) [Compound 100, 3-acetyl-2-(((6-aminopyridin-3-yl)methyl)sulfinyl)-8-bromo-5-chloroquinolin-4(1H)-one] | > 2000 nM | > 2000 nM | > 2000 nM | > 2000 nM |
| CC(=O)c1c([S+]([O-])Cc2cc(C)on2)[nH]c2c(F)ccc(F)c2c1=O (stereo not drawn) [Compound 82, 3-acetyl-5,8-difluoro-2-(((5-methylisoxazol-3 - yl)methyl)sulfinyl)quinolin-4(1H)-one] | > 2000 nM | > 2000 nM | > 2000 nM | > 2000 nM |
| Cc1cc(C[S+]([O-])c2[nH]c3c(Br)ccc(Cl)c3c(=O)c2C(=O)C(C)C)no1 (stereo not drawn) [Compound 95, 8-bromo-5-chloro-3-isobutyryl-2-(((5-methylisoxazol-3-yl)methyl)sulfinyl)quinolin-4(1H)-one] | 800 nM | 1290 nM | 770 nM | 1060 nM |
| CC(=O)c1c([S+]([O-])c2ccc(Br)cc2)[nH]c2c(Br)ccc(Cl)c2c1=O (stereo not drawn) [Compound 17, 3-acetyl-8-bromo-2-((4-bromophenyl)sulfinyl)-5-chloroquinolin-4(1H)-one] | > 2000 nM | > 2000 nM | > 2000 nM | > 2000 nM |
| CC(=O)c1c([S+]([O-])Cc2ccccc2)nc2c(Br)ccc(Cl)c2c1O (stereo not drawn) [Compound 53, 1-(2-(benzylsulfinyl)-8-bromo-5-chloro-4-hydroxyquinolin-3-yl)ethan-1-one] | > 2000 nM | > 2000 nM | > 2000 nM | > 2000 nM |
| CC(=O)c1c([S+]([O-])Cc2ccc(C(F)(F)F)nc2C)[nH]c2c(Br)ccc(Cl)c2c1=O (stereo not drawn) [Compound 102, 3-acetyl-8-bromo-5-chloro-2-(((2-methyl-6-(trifluoromethyl)pyridin-3-yl)methyl)sulfinyl)quinolin-4(1H)-one] | 770 nM | 1580 nM | 830 nM | 1070 nM |
| COc1cccc2[nH]c([S+]([O-])Cc3cc(C)on3)c(C(C)=O)c(=O)c12 (stereo not drawn) [Compound 94, 3-acetyl-5-methoxy-2-(((5-methylisoxazol-3 - yl)methyl)sulfinyl)quinolin-4(1H)-one] | 1530 nM | > 2000 nM | > 2000 nM | > 2000 nM |
